PMC5650142, “GPR40 partial agonists and AgoPAMs: Differentiating effects on glucose and hormonal secretions in the rodent” (PLoS ONE, 2017)
Values joined by “and” are separate entries in the source; they are usually repeats but may differ in a detail not shown here. Equal entries are not always repeated.

Assays:
[1] = system: wild type and GPR40-/- mice; experiment: Mouse incretin measurements (plasma glucagon, wild type and GPR40-/- mice); assay type: in vivo; details: for Plasma Glucagon: @ 30, individual animals (Fig 6A)
Experimental: Wild type and GPR40-/- mice were weighed the day prior to dosing. Food was removed from mice at lights on. 2 hours later mice were dosed via oral gavage (PO) at a volume of 10 ml/kg with vehicle (0.5% methylcellulose), AP1 at 30 mg/kg, or AP3 at 30 mg/kg. At 60 minutes post dose, mice were euthanized via CO2 asphyxiation. Blood was collected via cardiac puncture.
Blood for insulin, glucagon, GLP-1, GIP, and PYY measurements was collected into K2EDTA Microtainer tubes (BD, Franklin Lakes, NJ) pre-treated with DPP4 inhibitor (Millipore, Billerica, MA) and cOmplete™ Protease Inhibitor Cocktail Tablets (Roche Diagnostics, Indianapolis, IN). Tubes were centrifuged for 10 minutes at 5000 RPM, and plasma was aliquotted for analysis. Plasma insulin levels were measured via EIA (Mesoscale Discovery ELISA Kit, Gaithersburg MD). Rat plasma total GLP-1 was measured using Total GLP-1 (ver.2) Assay Kit (Cat#: K150JVC). The measurement of active GLP-1 was carried out in a similar manner as that described for total GLP-1 assay with the exception that MSD Active GLP-1 (ver. 2) assay kit (Cat# K150JWC) was used. Rat plasma glucagon was measured using an in-house glucagon assay developed as a MSD format sandwich immunoassay (Merck & Co., Inc., MRL, Kenilworth, NJ USA). The antibody specificity was cross validated via mass- spec using procedures described in Lee et al. Briefly, MSD Streptavidin Gold plates were coated with 2 μg/ml biotin mouse monoclonal antibody generated to glucagon. Test samples were added to the plates and a separate Sulfo- tagged monoclonal antibody was used to detect the captured glucagon protein (2 μg/ml). The ELISA was carried out in the standard reagents in the MSD format. The plate was read on the SECTOR Imager 6000 Reader. Metabolic hormones GIP (Gastric Inhibitory Polypeptide) and PYY (Peptide YY) were measured in rat plasma using the Rat Metabolic Magnetic Bead Panel (EMD Millipore, Billerica, MA). The assay was performed according to manufacturer protocol.

[2] = system: GK rats; experiment: GK rat chronic efficacy (28 days: glucose, food intake, body weight, GLP-1, GIP, PYY, insulin, glucagon); assay type: in vivo; design: Food Intake Over Time (Fig 3C) / Total Body Weight Change Over Time / Active GLP-1 Levels Over Time: unit not given here; details: 30 mpk; for Total Body Weight Change Over Time / Active GLP-1 Levels Over Time / GIP Levels Over Time / PYY Levels Over Time / Plasma Insulin Over Time: GK rats
Summary of the method: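 Daily oral gavage for 28 days, AP1 or AP3 at 30 mg/kg in 0.5% methylcellulose; MK-8666 at 30 mg/kg in feed. Fed glucose, food intake and weight on days 10, 17, 23, 28; glucose, GLP-1, GIP, PYY after 6 h fast, 1 h post dose. Hormones by MSD immunoassay or bead panel.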

C[C@H](C(=O)O)[C@H](c1ccc2c(c1)O[C@H](C1CN(Cc3cc(C(F)(F)F)ccc3C(F)(F)F)C1)CC2)C1CC1 [AP3]
Plasma Glucagon ([1]; KO mice): 20.25 pg/mL and 37.44 pg/mL and 95.8 pg/mL and 40.58 pg/mL and 53.81 pg/mL and 63.13 pg/mL and 24.92 pg/mL
circulating glucagon ([1]; WT mice, 30 mg/kg PO, 1h post dose): increase
Plasma Glucagon ([1]; WT mice): 137.56 pg/mL and 161.08 pg/mL and 195.45 pg/mL and 174.67 pg/mL and 101.1 pg/mL and 67.12 pg/mL and 161.82 pg/mL
Food Intake Over Time (Fig 3C) ([2]; Day 10): 15.815 and 14.78 and 14.855 and 15.07 and 14.37
Food Intake Over Time (Fig 3C) ([2]; Day 17): 16.6286 and 16.6643 and 16.8143 and 16.8286 and 16.8071
Food Intake Over Time (Fig 3C) ([2]; Day 23): 18.5083 and 18.3917 and 17.85 and 19.125 and 17.525
Food Intake Over Time (Fig 3C) ([2]; Day 28): 17.91 and 18.83 and 18.78 and 18.96 and 19.28
Total Body Weight Change Over Time ([2]; Day 0, individual animals (Fig 3D)): 0
Active GLP-1 Levels Over Time ([2]; Day 0, individual animals (Fig 4B), 30 mg/kg): 1.077 and 2.563 and 1.567 and 0.8713 and 1.148 and 1.431 and 1.186 and 1.3237 and 1.438 and 1.6108
GIP Levels Over Time ([2]; Day 0, individual animals (Fig 4C), 30 mg/kg): 64.6 and 61.42 and 49.69 and 65.31 and 46.23 (2×) and 37.69 and 48.72 and 40.59 and 29.52
PYY Levels Over Time ([2]; Day 0, individual animals (Fig 4D), 30 mg/kg, in pg/mL (unit assumed)): 45.68 and 75.54 and 74.62 and 61.64 and 36.39 and 74.15 and 136.82 and 43.52 and 46.38 and 67.65
Plasma Insulin Over Time ([2]; Day 0, individual animals (Fig 5A), 30 mg/kg): 1.29 ng/mL and 1.017 ng/mL and 1.844 ng/mL and 1.516 ng/mL and 2.832 ng/mL and 2.437 ng/mL and 2.602 ng/mL and 2.286 ng/mL and 2.384 ng/mL and 3.155 ng/mL
Total Body Weight Change Over Time ([2]; Day 10, individual animals (Fig 3D), 30 mg/kg): 11 and 17 and 1 (4×) and 8 and 2 and -5 and -10
Active GLP-1 Levels Over Time ([2]; Day 10, individual animals (Fig 4B), 30 mg/kg): 10.2264 and 10.1136 and 9.093 and 7.341 and 9.911 and 6.136 and 9.947 and 8.858 and 9.564 and 4.836
GIP Levels Over Time ([2]; Day 10, individual animals (Fig 4C), 30 mg/kg, in pg/mL (unit assumed)): 131.59 and 538.63 and 268.56 and 356.56 and 280.21 and 297.28 and 251.81 and 343.6 and 366.22 and 226.85
PYY Levels Over Time ([2]; Day 10, individual animals (Fig 4D), 30 mg/kg, in pg/mL (unit assumed)): 327.63 and 434.04 and 220.17 and 263.06 and 264.64 and 198.53 and 67.33 and 282.5 and 263.78 and 239.29
Plasma Insulin Over Time ([2]; Day 10, individual animals (Fig 5A), 30 mg/kg): 0.805 ng/mL and 1.032 ng/mL and 1.336 ng/mL and 1.205 ng/mL and 1.609 ng/mL and 1.271 ng/mL and 0.3056 ng/mL and 1.028 ng/mL and 1.285 ng/mL and 1.24 ng/mL
Total Body Weight Change Over Time ([2]; Day 17, individual animals (Fig 3D), 30 mg/kg): 17 and 22 and 6 (2×) and 19 and 5 and 10 and 7 and 3 and 4
Active GLP-1 Levels Over Time ([2]; Day 17, individual animals (Fig 4B), 30 mg/kg): 8.7 and 6.18 and 9.28 and 4.41 and 6.22 and 9.2 and 7.03 and 4.78 and 4.82 and 5.22
GIP Levels Over Time ([2]; Day 17, individual animals (Fig 4C), 30 mg/kg, in pg/mL (unit assumed)): 453.42 and 366.18 and 475.48 and 267.46 and 451.8 and 353.69 and 400.36 and 407.49 and 350.93
PYY Levels Over Time ([2]; Day 17, individual animals (Fig 4D), 30 mg/kg, in pg/mL (unit assumed)): 179 and 263.66 and 236.63 and 203.98 and 272.19 and 278.33 and 130.51 and 189.28 and 188.49
Plasma Insulin Over Time ([2]; Day 17, individual animals (Fig 5A), 30 mg/kg): 0.5609 ng/mL and 0.9183 ng/mL and 0.2807 ng/mL and 1.641 ng/mL and 1.961 ng/mL and 1.708 ng/mL and 1.453 ng/mL and 0.6985 ng/mL and 1.1926 ng/mL and 1.855 ng/mL
Total Body Weight Change Over Time ([2]; Day 23, individual animals (Fig 3D), 30 mg/kg): 28 and 34 and 22 and 15 and 18 and 7 and 14 and 17 and 6 and 4
Total Body Weight Change Over Time ([2]; Day 28, individual animals (Fig 3D), 30 mg/kg): 30 and 36 and 25 and 20 and 21 and 10 and 19 and 22 and 14 (2×)
Active GLP-1 Levels Over Time ([2]; Day 28, individual animals (Fig 4B), 30 mg/kg): 7.945 and 6.4879 and 5.324 and 10.6145 and 8.6355 and 6.965 and 4.915 and 7.012 and 6.997 and 8.043
GIP Levels Over Time ([2]; Day 28, individual animals (Fig 4C), 30 mg/kg, in pg/mL (unit assumed)): 257.43 and 223.283 and 216.92 and 196.33 and 188.58 and 171.99 and 248.64 and 189.72 and 162.6 and 177.95
PYY Levels Over Time ([2]; Day 28, individual animals (Fig 4D), 30 mg/kg, in pg/mL (unit assumed)): 237.97 and 76.0833 and 195.93 and 219.09 and 189.97 and 176.63 and 223.29 and 158.15 and 160.92 and 153.75
Plasma Insulin Over Time ([2]; Day 28, individual animals (Fig 5A), 30 mg/kg): 0.8153 ng/mL and 0.3115 ng/mL and 0.9427 ng/mL and 0.8881 ng/mL and 1.431 ng/mL and 0.8809 ng/mL and 1.428 ng/mL and 1.376 ng/mL and 1.352 ng/mL and 1.27 ng/mL
